Structures can show the parent of a compound that is named as a salt. Where two headings read alike, the source gives them in different places.
Tests used:
[1] = system: bacteria (systemic infection); assay: In vivo efficacy against systemic infection, overall conclusions; set-up: species or system male mice (ddY); settings: Table II
Description: (§1) The contents in the vials (No. A and No. C) prepared in Example 17 were each dissolved in deionized water, and injections having various concentrations were prepared.
(§2) Compounds A, B, F, G, H and M were dissolved in deionized water. Compounds C, D, E and J were dissolved in an aqueous solution of sodium carbonate (pH 8-9) to prepare injections of various concentrations.
(§3) Each of the injections was administered to mice under the conditions described below, and the median effective doses (ED50) obtained are shown in Table II.

Escherichia coli P-5101 [2] = assay: In vivo efficacy against systemic infection; set-up: species or system male mice (ddY); settings: P5101, in Mus musculus, 168 h, twice, about 5 minutes and 6 hours after infection, read-out: ED50 (median effective dose)
Description: as §1
(§4) Compounds A, B, F, G, H and M were dissolved in deionized water.
(§5) Mice: male mice (ddY) weighting about 20g
(§6) Intraperitoneal infection with 50 to
(§7) of a bacterial suspension in tryptosoy
(§8) twice, about 5 minutes and 6 hours after
(§9) calculated in accordance with the Behrens-Kaerber method [Arch. Exp. Path

[3] = system: Staphylococcus aureus No. 50774; assay: In vivo efficacy against systemic infection; set-up: species or system male mice (ddY); settings: NO.50774, in Mus musculus, 336 h, sc, twice, about 5 minutes and 6 hours after infection, read-out: ED50 (median effective dose)
Description: as §1, §2, §3, §5
Staphylococcus aureus No. 50774;
Intravenous infection with 50 to 100
LD50 (about 5 × 10^8cells/mouse) of a
bacterial suspension in saline.
as §8
Staphylococcus aureus No. 50774 14 days
The numerals in the table show ED50 (mg/kg). ED50 values were
as §9

in vivo = settings: mouse
Escherichia coli P-5101 [4] = assay: In vitro antibacterial activity (MIC); type: cell-based
Source text: (§10) In vitro antibacterial activity against 20 strains of bacteria
(§11) The numerals in the table show minimum inhibitory concentrations (MIC)

[5] = system: Serratia mercescens IFO 3736; assay: In vitro antibacterial activity (MIC); type: cell-based
Source text: as §10, §11

Shigella flexneri 2a = assay: In vitro antibacterial activity (MIC); type: cell-based; settings: read-out: minimum inhibitory concentration (MIC)
Source text: as §10, §11

Proteus rettgeri P-2503 = assay: In vitro antibacterial activity (MIC); type: cell-based; settings: Providencia rettgeri
Source text: as §10, §11

[6] = system: Enterobacter cloacae P-2540; assay: In vitro antibacterial activity (MIC); type: cell-based
Source text: as §10, §11

[7] = system: Streptococcus faecalis P-2473; assay: In vitro antibacterial activity (MIC); type: cell-based; settings: Enterococcus faecalis
Source text: as §10, §11

[8] = system: Staphylococcus aureus No. 50774; assay: In vitro antibacterial activity (MIC); type: cell-based; settings: Staphylococcus aureus No. 50774; read-out: minimum inhibitory concentration (MIC)
Source text: as §10, §11

[9] = system: Streptococcus pyogenes 65A; assay: In vitro antibacterial activity (MIC); type: cell-based; settings: Streptococcus pyogenes 65A; read-out: minimum inhibitory concentration (MIC)
Source text: as §10, §11

[10] = system: Shigella flexneri 4a P-330; assay: In vitro antibacterial activity (MIC); type: cell-based; settings: 4AP330, read-out: minimum inhibitory concentration (MIC)
Source text: as §10, §11

[11] = system: Salmonella enteritidis No. 1891; assay: In vitro antibacterial activity (MIC); type: cell-based; settings: Salmonella enterica; Salmonella enteritidis No. 1891; read-out: minimum inhibitory concentration (MIC)
Source text: as §10, §11

[12] = system: Pseudomonas aeruginosa No.12; assay: In vitro antibacterial activity (MIC); type: cell-based; settings: Pseudomonas aeruginosa, NO.12, read-out: minimum inhibitory concentration (MIC)
Source text: as §10, §11

[13] = system: Salmonella typhimurium S-9; assay: In vitro antibacterial activity (MIC); type: cell-based; settings: Salmonella enterica; Salmonella typhimurium S-9; read-out: minimum inhibitory concentration (MIC)
Source text: as §10, §11

[14] = system: Pseudomonas aeruginosa Tsuchijima; assay: In vitro antibacterial activity (MIC); type: cell-based; settings: read-out: minimum inhibitory concentration (MIC)
Source text: as §10, §11

[15] = system: Escherichia coli NIHJ JC-2; assay: In vitro antibacterial activity (MIC); type: cell-based; settings: Escherichia coli, NIHJJC2, read-out: minimum inhibitory concentration (MIC)
Source text: as §10, §11

[16] = system: Staphylococcus aureus 209P JC-1; assay: In vitro antibacterial activity (MIC); type: cell-based; settings: Staphylococcus aureus 209P JC-1; read-out: minimum inhibitory concentration (MIC)
Source text: as §10, §11

Proteus morganii Kono = assay: In vitro antibacterial activity (MIC); type: cell-based; settings: Morganella morganii; Proteus morganii Kono; read-out: minimum inhibitory concentration (MIC)
Source text: as §10, §11

Escherichia coli P-140a = assay: In vitro antibacterial activity (MIC); type: cell-based
Source text: as §10, §11

[17] = system: Corynebacterium pyogenes C-21; assay: In vitro antibacterial activity (MIC); type: cell-based; settings: Rhodococcus (subgen. Prescottella) equi, C21; Corynebacterium pyogenes C-21; read-out: minimum inhibitory concentration (MIC)
Source text: as §10, §11

[18] = system: Klebsiella pneumoniae No. 13; assay: In vitro antibacterial activity (MIC); type: cell-based; settings: Klebsiella pneumoniae No. 13; read-out: minimum inhibitory concentration (MIC)
Source text: as §10, §11

Proteus mirabilis P-2381 = assay: In vitro antibacterial activity (MIC); type: cell-based; settings: P2381; Proteus mirabilis P-2381; read-out: minimum inhibitory concentration (MIC)
Source text: as §10, §11

[19] = system: Pseudomonas aeruginosa No. 12; assay: In vivo efficacy against systemic infection; set-up: species or system male mice (ddY); settings: for ED50: NO.12, in Mus musculus
Description: as §1, §4, §5
Pseudomonas aeruginosa No. 12;
as §6, §7, §8
Pseudomonas aeruginosa No. 12
as §9

[20] = iv, twice, about 5 minutes and 6 hours after infection, read-out: ED50 (median effective dose)
[21] = sc, twice, about 5 minutes and 6 hours after infection, read-out: ED50 (median effective dose)

For CC(=O)N1CCN(c2ncc3c(=O)c(C(=O)N[C@@H](C(=O)N[C@@H]4C(=O)N5[C@@H]4SC(C)(C)[C@@H]5C(=O)O)c4ccc(O)cc4)c[nH]c3n2)CC1 [Compound 2, D-α-[5,8-Dihydro-2-(4-acetyl-1-piperazinyl)-5-oxopyrido[2,3-d]pyrimidine-6-carboxamido]-p-hydroxybenzylpenicillin sodium salt], the “chemotherapeutic index relative to compounds B, D, E, F, G and J (times as high)” value (mice; Pseudomonas aeruginosa) was 3 to 100 times, the “LD50 relative to compounds A to G (times as high)” value (mice; mice) was 2 to 10 times and the “antibacterial activity in vivo (in words)” value [1] was “excellent antibacterial activity in vivo”. It also gave an ED50 (Escherichia coli P-5101 [2]; iv) of 3.9 mg/kg, an ED50 (Escherichia coli P-5101 [2]; sc) of 4.6 mg/kg and an ED50 [3] of 3.3 mg/kg. The LD50 at 168 h (in vivo; iv) was 4520 mg/kg, the selectivity ratio (in vivo; iv) was 753 and the LD50 at 168 h (in vivo; sc) was > 6000 mg/kg. The selectivity ratio (in vivo; sc) was > 1200, the MIC (Escherichia coli P-5101 [4]; P5101, Escherichia coli P-5101, read-out: minimum inhibitory concentration (MIC)) was 0.78 µg/mL and the MIC ([5]; IFO3736, Serratia mercescens IFO 3736, read-out: minimum inhibitory concentration (MIC)) was 6.25 µg/mL. The MIC (Shigella flexneri 2a) was 3.13 µg/mL, the MIC (Proteus rettgeri P-2503; P2503, Proteus rettgeri P-2503, read-out: minimum inhibitory concentration (MIC)) was 25 µg/mL and the MIC ([6]; P2540, Enterobacter cloacae P-2540, read-out: minimum inhibitory concentration (MIC)) was 6.25 µg/mL. The MIC ([7]; P2473, Streptococcus faecalis P-2473, read-out: minimum inhibitory concentration (MIC)) was 6.25 µg/mL, the MIC [8] was 1.56 µg/mL and the MIC [9] was 0.006 µg/mL. For the same compound, the MIC [10] was 3.13 µg/mL, the MIC [11] was 0.78 µg/mL and the MIC [12] was 3.13 µg/mL. It also gave an MIC [13] of 0.78 µg/mL, an MIC ([14]; Pseudomonas aeruginosa Tsuchijima) of 0.78 µg/mL and an MIC [15] of 3.13 µg/mL. The MIC [16] was 1.56 µg/mL, the MIC (Proteus morganii Kono) was 6.25 µg/mL and the “minimum inhibitory concentration (MIC)” value (Escherichia coli P-140a) was 12.5 µg/mL. It also gave an MIC [17] of 0.78 µg/mL, an MIC [18] of 12.5 µg/mL and an MIC (Proteus mirabilis P-2381) of 6.25 µg/mL. For the same compound, the ED50 [19, 20] was 6 mg/kg, the ED50 ([19]; parenteral administration, compounds 1 and 2 together, read-out: ED50) was 2 to 6 mg/kg and the ED50 [19, 21] was 5 mg/kg. For the same compound, the “antibacterial activity compared with compounds J and H (in words)” value ([19]; parenteral administration) was “far superior antibacterial activity”, the “antibacterial activity relative to compounds B and C (times as high)” value ([19]; parenteral administration) was 3 to 25 times and the “antibacterial activity relative to compounds D and E (times as high)” value ([19]; parenteral administration) was 6 to 20 times.
With CCN1CCN(C(=O)N[C@@H](C(=O)N[C@@H]2C(=O)N3[C@@H]2SC(C)(C)[C@@H]3C(=O)O)c2ccccc2)C(=O)C1=O [Compound H, D-α-(4-Ethyl-2,3-dioxopiperazine-1-carboxamido)-benzylpenicillin sodium salt] the “LD50 compared with compounds 1 and 2 (in words)” value (mice; mice) was “almost the same”, the “antibacterial activity in vivo as fraction of that of the penicillin compounds of this invention” value [1] was “one-twentieth to one-seventieth” and the ED50 (Escherichia coli P-5101 [2]; iv) was 43.3 mg/kg. The ED50 (Escherichia coli P-5101 [2]; sc) was 26.3 mg/kg, the ED50 [3] was 8.8 mg/kg and the LD50 at 168 h (in vivo; iv) was > 4000 mg/kg. For the same compound, the LD50 at 168 h (in vivo; sc) was > 6000 mg/kg, the selectivity ratio (in vivo; sc) was > 42 and the MIC (Escherichia coli P-5101 [4]; Escherichia coli, P5101, read-out: minimum inhibitory concentration (MIC)) was 1.56 µg/mL. For the same compound, the MIC ([5]; Serratia, IFO3736, read-out: minimum inhibitory concentration (MIC)) was 0.78 µg/mL, the MIC (Shigella flexneri 2a) was 1.56 µg/mL and the MIC (Proteus rettgeri P-2503; P2503, read-out: minimum inhibitory concentration (MIC)) was 1.56 µg/mL. The MIC ([6]; Enterobacter cloacae, P2540, read-out: minimum inhibitory concentration (MIC)) was 3.13 µg/mL, the MIC ([7]; P2473, read-out: minimum inhibitory concentration (MIC)) was 3.13 µg/mL and the MIC [8] was 0.78 µg/mL. For the same compound, the MIC [9] was 0.025 µg/mL, the MIC [10] was 3.13 µg/mL and the MIC [11] was 0.39 µg/mL. For the same compound, the MIC [12] was 3.13 µg/mL, the MIC [13] was 0.39 µg/mL and the MIC ([14]; Pseudomonas aeruginosa) was 1.56 µg/mL. It also gave an MIC [15] of 3.13 µg/mL, an MIC [16] of 0.39 µg/mL and an MIC (Proteus morganii Kono) of 0.78 µg/mL. For the same compound, the “minimum inhibitory concentration (MIC)” value (Escherichia coli P-140a) was 12.5 µg/mL, the MIC [17] was 6.25 µg/mL and the MIC [18] was 6.25 µg/mL. For the same compound, the MIC (Proteus mirabilis P-2381) was 0.78 µg/mL, the ED50 [19, 20] was > 100 mg/kg and the ED50 [19, 21] was 141 mg/kg.
